Values quoted from earlier work, collected in US20190151294A1, “TREATMENT OF ALCOHOLISM AND DEPRESSION AND/OR DYSPHORIC MOOD USING IBUDILAST” (MEDICINOVA, INC., priority 2016, published 2019).

System: P and HAD1 rats and mouse model of ethanol dependence
Details: in these models of elevated alcohol intake; cited from earlier work

SMILES | selective reduction of ethanol drinking
CC[C@@H](C(N)=O)N1CCCC1=O [levatiracetam] | do not selectively reduce ethanol drinking
OCCOCCN1CCN(C2=Nc3ccccc3Sc3ccccc32)CC1 [quetiapine] | do not selectively reduce ethanol drinking
